Legend:
[1] = Photostability of dye-labeled secondary antibody in fixed NIH3T3 cells (fluorescence intensity vs exposure number); assay type: physicochemical; settings: FIG. 3B, compared with IRDye 680 and Alexa Fluor 680
Description: LI-COR IRDye 700DX is shown in FIG. 3A which has multiple charged groups. NIH3T3 cells were fixed and permeabilized, followed by incubation with rabbit anti-histone primary antibody and goat anti-rabbit secondary antibody labeled with IRDye 680, IRDye 700DX, or Alexa Fluor 680. Images were recorded in movies of 2-second exposures by a Roper Micromax CCD in a Zeiss Axiovert S100 microscope. The mean fluorescence intensity of the field is plotted against exposure number (FIG. 3B).

[2] = target: neutravidin (Gallus gallus, UniProt P02701); settings: at each individual immobilized biotin molecule, picomolar neutravidin in solution; cited from earlier work
Sequence of neutravidin (P02701 25-152): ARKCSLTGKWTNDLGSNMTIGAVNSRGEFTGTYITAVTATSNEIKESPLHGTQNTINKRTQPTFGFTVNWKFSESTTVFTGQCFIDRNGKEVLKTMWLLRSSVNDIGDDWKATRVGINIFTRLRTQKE

SMILES	photostability [1]	diffusion-limited binding rate [2] [M⁻¹ s⁻¹]
C[Si](C)(CCC[N+](CCCS(=O)(=O)[O-])(CCCS(=O)(=O)[O-])CCCS(=O)(=O)[O-])O[Si]1(O[Si](C)(C)CCC[N+](CCCS(=O)(=O)[O-])(CCCS(=O)(=O)[O-])CCCS(=O)(=O)[O-])n2c3c4ccccc4c2N=C2N=C(N=c4c5ccccc5c(n41)=NC1=NC(=N3)c3ccccc31)c1cccc(OCCCOC(=O)NCCCCCC(=O)ON3C(=O)CCC3=O)c12.[Na+].[Na+].[Na+].[Na+] (centres unmarked) [IRDye, 700DX]	superior	–
O=C(O)CCCC[C@@H]1SC[C@@H]2NC(=O)N[C@@H]21 [biotin]	–	1.9e+08
